The GI50 is the concentration that inhibits growth by half. As a reminder, the TGI is the concentration at which net growth stops. Lower therefore signals greater sensitivity of the cells.

Among the test systems are HCT-116 colon; HS 578T breast; HT29 colon; MCF7 breast; SF-268 CNS; NCI/ADR-RES ovarian; PC-3 prostate; SK-OV-3 ovarian; IGROV1 ovarian; A549 NSCLC.
What all share (test): DTP human tumour cell line panel, 48 h

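Interpolation was linear, between the two tested concentrations surrounding the appropriate level; five concentrations were tested over 48 hours in 96-well plates. GI50 is the concentration that inhibits growth by half. TGI marks complete inhibition of growth.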 Bounds are passed on as bounds.

On to `COc1cc(Nc2ncc(-c3ccccc3)o2)cc(OC)c1`, for which the GI50 in the experiment on HCT-116 colon was over 25 µM; with HS 578T breast, 1.39 µM; in the experiment on HT29 colon, over 25 µM; with MCF7 breast it was over 25 µM; with SF-268 CNS it was over 25 µM; with NCI/ADR-RES ovarian, over 25 µM. Further, the GI50 in the experiment on PC-3 prostate, in the experiment on SK-OV-3 ovarian, in the experiment on IGROV1 ovarian and in the experiment on A549 NSCLC was over 25 µM throughout. Also, the TGI is over 25 µM with HCT-116 colon; over 9.65 µM in the experiment on HS 578T breast; over 25 µM in the experiment with HT29 colon; over 25 µM in the experiment with MCF7 breast; over 25 µM with SF-268 CNS; over 25 µM with NCI/ADR-RES ovarian. The TGI in the experiment on PC-3 prostate, with SK-OV-3 ovarian, with IGROV1 ovarian and with A549 NSCLC was over 25 µM each time.
As to `OC(COC(c1ccccc1)(c1ccccc1)c1ccccc1)C(O)CC1SCCS1` (centres undefined), the TGI stood at 37.1 µM with HCT-116 colon; 39.7 µM in the experiment on HS 578T breast; 34.3 µM in the experiment with HT29 colon; 71.9 µM with MCF7 breast; 50.9 µM in the experiment with SF-268 CNS; 52.9 µM in the experiment with NCI/ADR-RES ovarian. The TGI with PC-3 prostate came out at 31.8 µM; in the experiment with SK-OV-3 ovarian, 48.9 µM; in the experiment on IGROV1 ovarian, 30.5 µM.
For the compound `COCc1c(-c2cc3cc(C)cc(OC)c3s2)c2c(N)ncnn2c1CN1CCNC(=O)C1`, the GI50 is 5.08 µM with HCT-116 colon; 1.84 µM in the experiment on HS 578T breast; 3.68 µM in the experiment with HT29 colon; 3.82 µM in the experiment on MCF7 breast; 4.3 µM with SF-268 CNS; 24.3 µM with NCI/ADR-RES ovarian. Further, the GI50 in the experiment with PC-3 prostate is 8.54 µM; with SK-OV-3 ovarian, 2.62 µM; with IGROV1 ovarian, 3.39 µM; in the experiment on A549 NSCLC it was 3.2 µM. In addition, the TGI in the experiment on HCT-116 colon is 44.4 µM; with HS 578T breast it was 13.7 µM; in the experiment on HT29 colon, 19.9 µM; in the experiment on MCF7 breast, 33.6 µM; in the experiment with SF-268 CNS, over 100 µM; with NCI/ADR-RES ovarian, over 100 µM. The TGI was over 100 µM in the experiment on PC-3 prostate, 7.72 µM in the experiment on SK-OV-3 ovarian, over 100 µM with IGROV1 ovarian and 29.9 µM in the experiment on A549 NSCLC.
As to `COC(=O)c1ccc(CN2C(=O)C(Cl)=C(Nc3cccc(Cl)c3C)C2=O)cc1`, the GI50 was 4.44 µM in the experiment on HCT-116 colon; 21 µM with HS 578T breast; 4.85 µM in the experiment with HT29 colon; 35.6 µM in the experiment on MCF7 breast; 45.3 µM in the experiment with SF-268 CNS; 34.8 µM in the experiment with NCI/ADR-RES ovarian. In addition, the GI50 was 37.6 µM in the experiment with PC-3 prostate, over 100 µM with SK-OV-3 ovarian, 2.76 µM in the experiment on IGROV1 ovarian and 37.2 µM in the experiment on A549 NSCLC. The TGI in the experiment on HCT-116 colon was over 100 µM; in the experiment with HS 578T breast it was 95.5 µM; in the experiment with HT29 colon, over 100 µM; in the experiment with MCF7 breast it was over 100 µM; in the experiment with SF-268 CNS, over 100 µM; in the experiment with NCI/ADR-RES ovarian, over 100 µM. In addition, the TGI with PC-3 prostate was over 100 µM; with SK-OV-3 ovarian it was over 100 µM; in the experiment with IGROV1 ovarian, 18.5 µM; in the experiment with A549 NSCLC, over 100 µM.
Turning to `COc1ncc(Nc2ncc([C@@H](C)N3CCN(S(C)(=O)=O)CC3)cc2-c2nc(C)nc(N)n2)cc1F`, the GI50 was 1.87 µM with HCT-116 colon; 0.0244 µM in the experiment with HS 578T breast; 0.0355 µM with HT29 colon; 0.0147 µM in the experiment on MCF7 breast; 0.452 µM in the experiment on SF-268 CNS; 1.61 µM in the experiment with NCI/ADR-RES ovarian. Further, the GI50 with PC-3 prostate was under 0.0139 µM; with SK-OV-3 ovarian, 0.0171 µM; with IGROV1 ovarian it was 0.0139 µM; in the experiment with A549 NSCLC, 0.186 µM. The TGI with HCT-116 colon was over 100 µM; with HS 578T breast it was 3.02 µM; in the experiment with HT29 colon, over 100 µM; in the experiment on MCF7 breast, over 100 µM; in the experiment on SF-268 CNS, over 100 µM; in the experiment with NCI/ADR-RES ovarian it was over 100 µM. For the same compound, the TGI was over 100 µM in the experiment with PC-3 prostate, 0.394 µM in the experiment on SK-OV-3 ovarian, 0.0829 µM in the experiment with IGROV1 ovarian and over 40.7 µM in the experiment on A549 NSCLC.
For the compound `CCOCCCn1c2c(c3c(O)cccc31)C(=O)c1ccccc1-2`, the GI50 in the experiment on HCT-116 colon was 16.6 µM; with HS 578T breast, 32.8 µM; in the experiment with HT29 colon, 30.2 µM; with MCF7 breast it was 32.6 µM; in the experiment with SF-268 CNS, 18.1 µM; in the experiment with NCI/ADR-RES ovarian it was 20.8 µM. Moreover, the GI50 in the experiment with PC-3 prostate is 14.7 µM; in the experiment on SK-OV-3 ovarian it was 24.8 µM; in the experiment with IGROV1 ovarian it was 17.1 µM; in the experiment with A549 NSCLC, 29.2 µM. Moreover, the TGI was 33.5 µM in the experiment with HCT-116 colon; 82.3 µM in the experiment on HS 578T breast; over 100 µM in the experiment with HT29 colon; over 100 µM with MCF7 breast; 50.3 µM with SF-268 CNS; 56.5 µM in the experiment with NCI/ADR-RES ovarian. Moreover, the TGI is 36.7 µM in the experiment on PC-3 prostate, 72.4 µM with SK-OV-3 ovarian, 48.7 µM with IGROV1 ovarian and over 100 µM in the experiment with A549 NSCLC.
`CC1C(C)N(C(=O)CCl)c2ccccc2N1C(=O)CCl` (centres undefined): the GI50 in the experiment with HCT-116 colon was 0.185 µM; in the experiment on HS 578T breast, 1.06 µM; in the experiment with HT29 colon, 0.225 µM; with MCF7 breast, 0.318 µM; with SF-268 CNS, 0.582 µM; with NCI/ADR-RES ovarian, 0.784 µM. In addition, the GI50 in the experiment on PC-3 prostate is 1.19 µM; in the experiment with SK-OV-3 ovarian it was 1.58 µM; in the experiment on IGROV1 ovarian, 0.203 µM; in the experiment with A549 NSCLC, 2.25 µM. Besides, the TGI in the experiment with HCT-116 colon stood at 0.406 µM; in the experiment on HS 578T breast it was 7.63 µM; in the experiment with HT29 colon it was 0.523 µM; in the experiment with MCF7 breast, 1.6 µM; in the experiment with SF-268 CNS it was 2.11 µM; in the experiment on NCI/ADR-RES ovarian, 13.3 µM. In addition, the TGI in the experiment on PC-3 prostate is 2.85 µM; in the experiment on SK-OV-3 ovarian, 3 µM; in the experiment with IGROV1 ovarian, 0.435 µM; in the experiment on A549 NSCLC, 6.11 µM.
For `COC(=O)[C@H](Cc1cnc[nH]1)NC(=O)[C@@H](NC(=O)Nc1cc(C(F)(F)F)cc(C(F)(F)F)c1)C(C)C`, the GI50 with HCT-116 colon is 18.9 µM; in the experiment on HS 578T breast, 16.8 µM; in the experiment on HT29 colon it was 18.1 µM; with MCF7 breast it was 14.4 µM; with SF-268 CNS, 15.2 µM; in the experiment on NCI/ADR-RES ovarian it was 33.7 µM. Moreover, the GI50 with PC-3 prostate is 14.5 µM; with SK-OV-3 ovarian, 18.5 µM; in the experiment with IGROV1 ovarian, 18.1 µM; with A549 NSCLC, 16.7 µM. For the same compound, the TGI in the experiment with HCT-116 colon is 40.7 µM; with HS 578T breast, 47.6 µM; in the experiment on HT29 colon, 33.8 µM; in the experiment on MCF7 breast, 29.6 µM; with SF-268 CNS, 31.1 µM; with NCI/ADR-RES ovarian, over 100 µM. The TGI in the experiment with PC-3 prostate came out at 28.4 µM; with SK-OV-3 ovarian, 32.5 µM; with IGROV1 ovarian, 36.1 µM; in the experiment with A549 NSCLC it was 32.7 µM.

These data come from PubChem BioAssay (NCI).
